Our source for the EC50, Emax and Ki values is patent US20090181968A1, “Novel 3-Bicyclocarbonylaminopyridine-2-Carboxamides or 3-Bicyclocarbonylaminopyrazine-2-Carboxamides” (priority 2005, published 2009).

Molecules are shown by their SMILES. Read-outs that look alike come from different tables or passages of the source.

Broadly, the EC50 is the midpoint of the concentration-response curve. One may read the Emax as the size of the effect at its maximum, as opposed to the concentration needed. As usually defined, the Ki is a measure of affinity in units of concentration, obtained from inhibition or displacement.

The target in test [1] is T1, human CB1 receptor (Homo sapiens, UniProt P21554).
T1 construct: purchased Perkin-Elmer
As to the kind of experiment: hCB1 GTPγS binding. It counts as biochemical. The settings on record: for Emax: read-out: Emax hCB1. The method, then: Cloned human CB1 receptor from Perkin-Elmer (hCB1) are thawed at 37° C., passed 3 times through a 23-gauge blunt-end needle and diluted in the GTPγS binding buffer (50 mM Hepes, 20 mM NaOH, 100 mM NaCl, 1 mM EDTA, 5 mM MgCl2, pH 7.4, 0.1% BSA). […] The basal and maximal stimulated binding is determined in absence and presence of 10 μM Win 55,212-2. The membranes are pre-incubated for 5 minutes with 112.5 μM GDP prior to distribution in plates (30 μM GDP final). The plates are vortexed and incubated for 60 minutes at room temperature, filtered on Unifilters GF/B (pre-soaked in water) with the Packard harvester using 3 ml of wash buffer (50 mM Tris, 5 mM MgCl2, 50 mM NaCl, pH 7.0). The filters are dried for 1 hour at 55° C. The radioactivity (cpm) is counted in a TopCount (Packard) after adding 65 μl/well of MS-20 scintillation liquid.
For orientation: GTPγS resists hydrolysis and so accumulates on activated G proteins.

In test [2] the target is T1, human CB1 receptor. Kind of test: hCB1 receptor binding (3H-CP55,940 displacement). Here is the method:
hCB1 and hCB2 Receptor Binding
Membranes are produced from either HEK 293S cells expressing the cloned human CB1 receptor (hCB1: clone #24) or Sf9 cells, using the baculovirus system, expressing the cloned human CB2 receptor (hCB2). The membranes are thawed at 37° C., passed 3 times through a 23-gauge blunt-end needle, diluted in the cannabinoid binding buffer (50 mM Tris, 2.5 mM EDTA, 5 mM MgCl2, and 0.5 mg/mL BSA fatty acid free, pH 7.4) and aliquots containing the appropriate amount of protein are distributed in 96-well plates. The IC50 of the compounds of the present invention at hCB1 and hCB2 are evaluated from 10-point dose-response curves done with ^3H-CP55,940 at 20000 to 25000 dpm per well (0.17-0.21 nM) in a final volume of 300 μl. The total and non-specific binding are determined in the absence and presence of 0.2 μM of HU210 respectively. The plates are vortexed and incubated for 60 minutes at room temperature, filtered through Unifilters GF/B (pre-soaked in 0.1% polyethyleneimine) with the Packard harvester using 3 mL of wash buffer (50 mM Tris, 5 mM MgCl2, 0.5 mg BSA pH 7.0). The filters are dried for 1 hour at 55° C. The radioactivity (cpm) is counted in a TopCount (Packard) after adding 65 μl/well of MS-20 scintillation liquid.
Based on the above assays, the dissociation constant (Ki) for a particular compound of the present invention towards a particular receptor is determined using the following equation: […]
wherein IC50 is the concentration of the compound of the present invention at which 50% displacement has been observed; [rad] is a standard or reference radioactive ligand concentration at that moment; Kd is the dissociation constant of the radioactive ligand towards the particular receptor.

T1 sequence (P21554 whole entry): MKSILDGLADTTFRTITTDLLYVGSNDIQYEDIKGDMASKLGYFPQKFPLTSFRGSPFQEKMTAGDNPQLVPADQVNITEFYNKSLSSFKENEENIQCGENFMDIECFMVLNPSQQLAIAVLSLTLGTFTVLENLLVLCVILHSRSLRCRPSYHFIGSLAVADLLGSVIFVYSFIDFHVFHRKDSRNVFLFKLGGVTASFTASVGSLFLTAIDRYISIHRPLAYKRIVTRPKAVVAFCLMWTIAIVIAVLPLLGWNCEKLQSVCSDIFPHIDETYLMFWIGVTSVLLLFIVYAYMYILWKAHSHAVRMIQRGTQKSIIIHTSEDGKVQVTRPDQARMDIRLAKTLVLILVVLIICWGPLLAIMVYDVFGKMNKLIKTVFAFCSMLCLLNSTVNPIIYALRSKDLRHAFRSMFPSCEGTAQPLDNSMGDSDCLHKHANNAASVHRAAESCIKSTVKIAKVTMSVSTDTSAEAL

Regarding `O=C(NCC1CCC1)c1ncccc1NC(=O)c1ccc(Cn2cc(F)nn2)c2ccccc12` [Example 50, N-(Cyclobutylmethyl)-3-({4-[(4-fluoro-1H-1,2,3-triazol-1-yl)methyl]-1-naphthoyl}amino)pyridine-2-carboxamide], at human CB1 receptor [1], the midpoint of the response, the EC50, lay at 46 nM and the Emax came out at 48%. At human CB1 receptor [2], this compound gave a Ki of 51 nM.

With `O=C(NCC1CCOCC1)c1nc(OS(=O)(=O)CCC(F)(F)F)cnc1NC(=O)c1ccc(Cn2ccnn2)c2ccccc12` [Example 44, 6-[(Tetrahydro-2H-pyran-4-ylmethyl)carbamoyl]-5-{[4-(1H-1,2,3-triazol-1-ylmethyl)-1-naphthoyl]amino}pyrazin-2-yl 3,3,3-trifluoropropane-1-sulfonate], at human CB1 receptor [1], the EC50 amounted to 240 nM and the Emax stood at 140%. In addition, the affinity at human CB1 receptor [2] corresponds to a Ki of 270 nM.

On to `COCc1ccc(C(=O)Nc2ccc(OCCO)nc2C(=O)NCC2CCOCC2)c2ccccc12` [Example 35, 6-(2-Hydroxy-ethoxy)-3-[(4-methoxymethyl-naphthalene-1-carbonyl)-amino]-pyridine-2-carboxylic Acid (tetrahydro-pyran-4-ylmethyl)-amide], for which, on human CB1 receptor [1], it took 99 nM to reach a half-maximal effect (EC50) and the Emax was 93%. At human CB1 receptor [2], this compound displayed a Ki of 53 nM.

For `COCc1cnnn1Cc1ccc(C(=O)Nc2cccnc2C(=O)NCC2CCC2)c2ccccc12` [Example 15, N-(cyclobutylmethyl)-3-[(4-{[5-(methoxymethyl)-1H-1,2,3-triazol-1-yl]methyl}-1-naphthoyl)amino]pyridine-2-carboxamide], at human CB1 receptor [1], the EC50 was determined as 22 nM and the Emax worked out at 120%. On human CB1 receptor [2], this compound came in with a Ki of 13 nM.

For the compound `O=C(COc1ccc(NC(=O)c2ccc(Cn3ccnn3)c3ccccc23)c(C(=O)NCC2CCC2)n1)NCCO` [Example 7, N-(cyclobutylmethyl)-6-{2-[(2-hydroxyethyl)amino]-2-oxoethoxy}-3-{[4-(1H-1,2,3-triazol-1-ylmethyl)-1-naphthoyl]amino}pyridine-2-carboxamide], at human CB1 receptor [1], the EC50 worked out at 120 nM and the Emax worked out at 110%. For the same compound, at human CB1 receptor [2], the affinity, expressed as Ki, was 59 nM.

On to `CN(C)C(=O)COc1ccc(NC(=O)c2ccc(Cn3ccnn3)c3ccccc23)c(C(=O)NCC2CCC2)n1` [Example 6, N-(cyclobutylmethyl)-6-[2-(dimethylamino)-2-oxoethoxy]-3-{[4-(1H-1,2,3-triazol-1-ylmethyl)-1-naphthoyl]amino}pyridine-2-carboxamide], for which, at human CB1 receptor [1], the midpoint of the response, the EC50, lay at 80 nM and the Emax was 88%. At human CB1 receptor [2], this compound registered a Ki of 52 nM.

For `CC(C)OC(=O)COc1ccc(NC(=O)c2ccc(Cn3ccnn3)c3ccccc23)c(C(=O)NCC2CCC2)n1` [Example 29, {6-(Cyclobutylmethyl-carbamoyl)-5-[(4-[1,2,3]triazol-1-ylmethyl-naphthalene-1-carbonyl)-amino]-pyridin-2-yloxy}-acetic Acid Isopropyl Ester], on human CB1 receptor [1], a half-maximal response (EC50) required 7.1 nM and the Emax is 80%. Besides, the Ki on human CB1 receptor [2] came to 5.4 nM.

For the compound `O=C(NCC1CCC1)c1nc(OCc2ccccn2)ccc1NC(=O)c1ccc(Cn2ccnn2)c2ccccc12` [Example 14, N-(cyclobutylmethyl)-6-(pyridin-2-ylmethoxy)-3-{[4-(1H-1,2,3-triazol-1-ylmethyl)-1-naphthoyl]amino}pyridine-2-carboxamide], at human CB1 receptor [1], the EC50 was 7.3 nM and the Emax stood at 110%. In addition, the Ki at human CB1 receptor [2] turned out to be 3.2 nM.

For the compound `O=C(COc1ccc(NC(=O)c2ccc(Cn3ccnn3)c3ccccc23)c(C(=O)NCC2CCC2)n1)NCc1ccccc1` [Example 27, 6-(Benzylcarbamoyl-methoxy)-3-[(4-[1,2,3]triazol-1-ylmethyl-naphthalene-1-carbonyl)-amino]-pyridine-2-carboxylic Acid Cyclobutylmethyl-amide], on human CB1 receptor [1], it took 42 nM to reach a half-maximal effect (EC50) and the Emax is 94%. Further, the affinity at human CB1 receptor [2] corresponds to a Ki of 35 nM.

On to `O=C(NCC1CCOCC1)c1ncccc1NC(=O)c1csc2ccccc12` [Example 56, 3-[(1-benzothien-3-yl-carbonyl)amino]-N-(tetrahydro-2H-pyran-4-ylmethyl)pyridine-2-carboxamide], for which the EC50 on human CB1 receptor [1] (GTPγ35S binding, cloned human CB1 receptor membranes, read-out: EC50 hCB1) was 380 nM. Further, at human CB1 receptor [1], the Emax turned out to be 88%. The Ki on human CB1 receptor [2] (membranes of HEK 293S cells expressing cloned human CB1 receptor, Ki=IC50/(1+[rad]/Kd), read-out: Ki hCB1) came to 260 nM.
